Assay results from ChEMBL document CHEMBL1201862, “PubChem BioAssay data set” (2004).
Active and inactive are the calls of the source.

Key:
[1] = system: Streptococcus sp. 'group A'; test: growth inhibition of control SK(-) GAS strain, dose response, counter-screen for streptokinase expression inhibitor project, luminescence, kanamycin, BacTiterGlo, confirmation (AID 1900); assay type: functional, organism-based
[2] = system: Streptococcus; test: Luminescence Microorganism-Based Dose Response Follow up to Identify Compounds Cytotoxic to Streptococcus. [Related pubchem assays: 1677 (Project Summary), 1915, 1914, 1902 (Retest at Dose), 1900 (Counter Screen), 1662 (Primary HTS)]; assay type: functional, organism-based
[3] = molecular target: T1, Streptokinase A (Streptococcus pyogenes serotype M1, UniProt P10520); test: S. pyogenes streptokinase expression inhibitors, potency, dose response, plasminogen activation absorbance, OD405 (AID 1914); assay type: functional, Streptococcus pyogenes M1 GAS;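 note: secreted streptokinase activity via plasminogen activation per viability signal from cell pellet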
T1 sequence (P10520 whole entry): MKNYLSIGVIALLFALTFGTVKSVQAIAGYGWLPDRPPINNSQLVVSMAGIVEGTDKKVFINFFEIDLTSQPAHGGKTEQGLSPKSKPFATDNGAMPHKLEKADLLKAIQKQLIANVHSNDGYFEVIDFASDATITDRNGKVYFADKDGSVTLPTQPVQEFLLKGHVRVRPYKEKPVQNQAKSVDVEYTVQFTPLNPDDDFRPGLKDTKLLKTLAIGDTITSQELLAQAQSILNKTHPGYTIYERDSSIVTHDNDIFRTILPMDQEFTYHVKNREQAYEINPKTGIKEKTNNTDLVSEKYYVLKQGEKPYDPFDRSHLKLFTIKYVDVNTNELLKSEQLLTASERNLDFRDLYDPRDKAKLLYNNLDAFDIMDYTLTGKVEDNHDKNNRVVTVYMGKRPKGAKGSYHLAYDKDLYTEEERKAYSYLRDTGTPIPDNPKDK

[4] = molecular target: T1, Streptokinase A; test: Absorbance Microorganism-Based Dose Response Follow up to Identify Inhibitors of Streptokinase Expression. [Related pubchem assays: 1677 (Project Summary), 1915, 1914, 1902 (Retest at Dose), 1900 (Counter Screen), 1662 (Primary HTS)]; assay type: functional, Streptococcus pyogenes M1 GAS
[5] = system: Streptococcus; test: Streptococcus pyogenes growth inhibition counter-screen, dose response, counter-screen for streptokinase expression inhibitor project, luminescence, BacTiter-Glo, strain UMAA2166 (AID 2477); assay type: functional, organism-based
[6] = system: Streptococcus; test: Group A Streptococcus viability loss, dose response, counter-screen for streptokinase expression inhibitor project, luminescence, BacTiterGlo (AID 1915); assay type: functional, organism-based;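 note: potency for reduction of bacterial viability or growth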
[7] = Absorbance Microorganism-Based Dose Response Follow up to Identify Inhibitors of Streptokinase Expression. [Related pubchem assays: 1677 (Project Summary), 1915, 1914, 1902 (Retest at Dose), 1900 (Counter Screen), 1662 (Primary HTS)]
[8] = molecular target: G-protein coupled receptor 35 (Homo sapiens, UniProt Q9HC97); test: GPR35 antagonists blocking zaprinast-driven arrestin recruitment, primary screen, imaging, U2OS, beta-arrestin-GFP, zaprinast agonist (AID 2058); assay type: functional;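 note: antagonist potency meaning inhibition of agonist-induced arrestin redistribution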
[9] = molecular target: Beta-lactamase (Pseudomonas aeruginosa, UniProt Q79MP6);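 note: biochemical dose-response test of metallo-beta-lactamase enzyme inhibition, read out by epi-absorbance; purified recombinant IMP-1 metallo-beta-lactamase with nitrocefin as substrate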
[10] = molecular target: Beta-lactamase (Salmonella choleraesuis (strain SC-B67), UniProt Q5J463)
[11] = molecular target: Keap1/Nrf2 (Homo sapiens, UniProt Q14145); test: Keap1-Nrf2 protein-protein interaction inhibitors, dose response, biochemical, fluorescence polarization, cherry-picked samples (AID 588683)
[12] = molecular target: Lysosomal acid glucosylceramidase (Homo sapiens, UniProt P04062); test: Dose response cell-based high throughput screening assay to identify enhancers of beta-glucosidase activity. [Related pubchem assays: 784 ]; assay type: functional
[13] = molecular target: Cytochrome P450 2C19 (Homo sapiens, UniProt P33261); test: Cytochrome panel assay with activity outcomes. Panel member name: p450-cyp2c19 Compounds with AC50 equal or less than 10 uM are considered active; assay type: functional
[14] = molecular target: Cytochrome P450 2D6 (Homo sapiens, UniProt P10635);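 note: CYP2D6 member of a cytochrome P450 panel assay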
[15] = molecular target: Cytochrome P450 2C9 (Homo sapiens, UniProt P11712)
[16] = molecular target: Melanin-concentrating hormone receptor 1 (Homo sapiens, UniProt Q99705); test: Late-stage fluorescence-based counterscreen for antagonists of the G-protein coupled receptor 7 (GPR7): cell-based dose response assay to identify antagonists of the melanin-concentrating hormone receptor 1 (MCHR1). [Related pubchem assays (depositor defined):AID1861, AID1880, AID1952, AID2148, AID2251, AID2257, AID485339]; assay type: functional;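 note: stimulated with 30 nM MCH peptide agonist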
[17] = molecular target: T2, Neuropeptides B/W receptor type 1 (Homo sapiens, UniProt P48145); test: GPR7 antagonist potency, late-stage follow-up, cell-based, fluorescence, dose response (AID 463251); assay type: functional
T2 sequence (P48145 whole entry): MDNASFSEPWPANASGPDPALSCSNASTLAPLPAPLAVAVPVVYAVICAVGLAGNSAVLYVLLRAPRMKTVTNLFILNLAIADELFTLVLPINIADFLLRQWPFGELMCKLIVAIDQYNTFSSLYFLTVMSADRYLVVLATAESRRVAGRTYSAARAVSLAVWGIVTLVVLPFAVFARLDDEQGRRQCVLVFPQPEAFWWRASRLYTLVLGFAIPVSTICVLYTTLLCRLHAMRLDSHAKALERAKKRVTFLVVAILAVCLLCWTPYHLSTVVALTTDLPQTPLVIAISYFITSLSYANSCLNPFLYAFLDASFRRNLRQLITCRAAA

[18] = molecular target: Glucose-6-phosphate 1-dehydrogenase (Homo sapiens, UniProt P11413); test: human G6PD enzyme inhibitors, dose response, selectivity assay for P. falciparum G6PD inhibitor project, biochemical, fluorescence (AID 504792); assay type: functional
[19] = system: HeLa; test: HeLa cell cytotoxicity, dose response, cytotoxicity control, 24 h, cherry-picked samples (AID 504726); assay type: functional, cell-based; conditions: Homo sapiens;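 note: potency for cytotoxicity as loss of luminescence signal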
[20] = molecular target: ORF 73 (Human herpesvirus 8, UniProt O40947); test: inhibitors of C-LANA binding to LBS DNA, dose response, biochemical, fluorescence polarization, cherry-picked samples (AID 504725); set-up: species or system Human gammaherpesvirus 8;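 note: fluorescence polarization of a labeled DNA duplex reporting LANA DNA binding; potency is for inhibitors that block LANA binding to the DNA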
[21] = molecular target: Troponin, cardiac muscle (Homo sapiens, UniProt P19429+P45379+P63316); test: inhibitors of cardiac thin filament calcium sensitivity, dose response, biochemical, fluorescence, cardiac regulated thin filaments, triplicate IC50 (AID 504742); assay type: protein-complex assay
[22] = molecular target: Genome polyprotein (dengue virus type 2, UniProt P29990); test: Dengue-2 NS5 methyltransferase inhibitors, primary screen, biochemical, confirmation dose response (AID 588689); assay type: functional
[23] = molecular target: Metabotropic glutamate receptor 4 (Rattus norvegicus, UniProt P31423); test: Modulation of the Metabotropic Glutamate Receptor mGluR4: Rat PAM Potency. [Related pubchem assays (depositor defined):AID2437, AID2807]; assay type: functional
Metabotropic glutamate receptor 4, sequence (P31423 whole entry): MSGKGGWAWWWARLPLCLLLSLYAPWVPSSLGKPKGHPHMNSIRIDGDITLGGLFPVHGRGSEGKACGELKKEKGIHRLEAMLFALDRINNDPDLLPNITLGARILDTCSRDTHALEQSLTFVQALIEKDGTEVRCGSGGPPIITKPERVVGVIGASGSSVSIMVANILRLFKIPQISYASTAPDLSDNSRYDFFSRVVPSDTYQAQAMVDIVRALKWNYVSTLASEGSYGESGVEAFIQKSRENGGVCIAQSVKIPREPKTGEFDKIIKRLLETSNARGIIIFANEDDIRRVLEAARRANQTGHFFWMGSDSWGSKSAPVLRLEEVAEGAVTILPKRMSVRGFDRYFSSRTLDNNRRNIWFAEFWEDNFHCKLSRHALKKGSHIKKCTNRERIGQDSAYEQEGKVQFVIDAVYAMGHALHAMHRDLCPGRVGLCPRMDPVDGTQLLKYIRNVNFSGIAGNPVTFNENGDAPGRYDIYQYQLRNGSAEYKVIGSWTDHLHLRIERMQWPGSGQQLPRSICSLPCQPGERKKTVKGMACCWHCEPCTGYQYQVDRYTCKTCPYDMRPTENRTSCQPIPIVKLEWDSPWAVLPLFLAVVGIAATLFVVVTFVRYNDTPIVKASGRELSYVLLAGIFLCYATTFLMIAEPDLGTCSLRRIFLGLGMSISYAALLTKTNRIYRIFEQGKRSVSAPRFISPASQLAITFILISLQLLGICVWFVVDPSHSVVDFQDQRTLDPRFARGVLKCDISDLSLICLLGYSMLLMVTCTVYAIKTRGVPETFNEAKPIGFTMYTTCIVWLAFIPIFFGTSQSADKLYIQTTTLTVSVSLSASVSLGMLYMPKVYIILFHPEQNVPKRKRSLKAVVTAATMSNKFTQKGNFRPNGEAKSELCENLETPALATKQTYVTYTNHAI

Cytochrome P450 2C9, sequence (P11712 whole entry): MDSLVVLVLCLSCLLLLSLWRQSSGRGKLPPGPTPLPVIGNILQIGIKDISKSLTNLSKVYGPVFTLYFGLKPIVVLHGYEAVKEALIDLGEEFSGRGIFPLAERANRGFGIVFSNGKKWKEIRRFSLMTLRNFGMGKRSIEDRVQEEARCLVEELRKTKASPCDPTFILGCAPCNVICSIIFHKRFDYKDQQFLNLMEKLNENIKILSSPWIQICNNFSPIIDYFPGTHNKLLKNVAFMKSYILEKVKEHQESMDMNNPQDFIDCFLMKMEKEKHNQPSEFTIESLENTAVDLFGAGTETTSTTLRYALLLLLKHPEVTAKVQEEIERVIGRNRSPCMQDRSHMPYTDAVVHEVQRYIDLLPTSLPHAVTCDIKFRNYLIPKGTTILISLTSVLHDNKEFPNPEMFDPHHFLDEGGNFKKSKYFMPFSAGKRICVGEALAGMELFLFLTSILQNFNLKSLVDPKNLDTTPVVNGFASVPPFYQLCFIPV
Keap1/Nrf2, sequence (Q16236 whole entry): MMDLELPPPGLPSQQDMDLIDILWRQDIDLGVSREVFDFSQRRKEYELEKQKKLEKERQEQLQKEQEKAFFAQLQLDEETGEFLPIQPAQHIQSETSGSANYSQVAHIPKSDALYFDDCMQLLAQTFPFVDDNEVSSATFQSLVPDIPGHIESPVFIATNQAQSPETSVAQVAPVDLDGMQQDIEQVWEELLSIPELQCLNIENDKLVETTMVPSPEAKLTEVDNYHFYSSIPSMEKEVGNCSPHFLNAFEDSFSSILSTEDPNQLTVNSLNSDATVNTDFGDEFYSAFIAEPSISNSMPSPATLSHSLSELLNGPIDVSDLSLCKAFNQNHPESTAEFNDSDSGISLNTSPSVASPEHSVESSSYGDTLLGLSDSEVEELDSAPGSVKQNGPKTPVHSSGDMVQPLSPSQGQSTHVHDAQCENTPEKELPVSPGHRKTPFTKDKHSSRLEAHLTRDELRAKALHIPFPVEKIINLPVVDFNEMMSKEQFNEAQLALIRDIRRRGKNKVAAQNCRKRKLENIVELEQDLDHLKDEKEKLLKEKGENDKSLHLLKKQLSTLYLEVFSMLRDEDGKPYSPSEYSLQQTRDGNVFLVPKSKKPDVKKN
Keap1/Nrf2, sequence (Q14145 whole entry): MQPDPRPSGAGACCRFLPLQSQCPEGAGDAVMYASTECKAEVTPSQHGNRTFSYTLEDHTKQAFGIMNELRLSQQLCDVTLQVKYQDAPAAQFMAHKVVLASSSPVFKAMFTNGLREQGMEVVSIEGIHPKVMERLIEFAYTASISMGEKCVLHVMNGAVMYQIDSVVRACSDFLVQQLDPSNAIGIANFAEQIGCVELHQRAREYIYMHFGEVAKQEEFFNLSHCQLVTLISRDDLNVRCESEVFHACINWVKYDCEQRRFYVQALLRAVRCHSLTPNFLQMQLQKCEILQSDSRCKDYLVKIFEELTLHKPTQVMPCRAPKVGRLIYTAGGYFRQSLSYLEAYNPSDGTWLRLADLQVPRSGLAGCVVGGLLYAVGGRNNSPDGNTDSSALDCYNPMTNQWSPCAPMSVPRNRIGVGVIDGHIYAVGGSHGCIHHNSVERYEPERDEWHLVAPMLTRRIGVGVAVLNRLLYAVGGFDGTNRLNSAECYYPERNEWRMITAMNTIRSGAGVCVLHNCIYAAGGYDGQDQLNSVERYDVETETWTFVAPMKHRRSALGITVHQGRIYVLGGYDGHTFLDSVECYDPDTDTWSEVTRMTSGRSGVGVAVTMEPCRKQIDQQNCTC
Beta-lactamase (Salmonella choleraesuis (strain SC-B67), UniProt Q5J463), sequence (Q5J463 whole entry): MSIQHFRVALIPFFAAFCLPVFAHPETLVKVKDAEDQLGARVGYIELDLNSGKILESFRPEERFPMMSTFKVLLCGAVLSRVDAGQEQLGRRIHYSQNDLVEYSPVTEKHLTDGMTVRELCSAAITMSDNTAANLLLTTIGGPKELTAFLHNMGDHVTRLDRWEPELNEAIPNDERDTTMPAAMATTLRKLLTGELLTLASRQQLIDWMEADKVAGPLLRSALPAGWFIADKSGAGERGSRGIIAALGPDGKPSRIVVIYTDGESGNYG
Cytochrome P450 2D6, sequence (P10635 whole entry): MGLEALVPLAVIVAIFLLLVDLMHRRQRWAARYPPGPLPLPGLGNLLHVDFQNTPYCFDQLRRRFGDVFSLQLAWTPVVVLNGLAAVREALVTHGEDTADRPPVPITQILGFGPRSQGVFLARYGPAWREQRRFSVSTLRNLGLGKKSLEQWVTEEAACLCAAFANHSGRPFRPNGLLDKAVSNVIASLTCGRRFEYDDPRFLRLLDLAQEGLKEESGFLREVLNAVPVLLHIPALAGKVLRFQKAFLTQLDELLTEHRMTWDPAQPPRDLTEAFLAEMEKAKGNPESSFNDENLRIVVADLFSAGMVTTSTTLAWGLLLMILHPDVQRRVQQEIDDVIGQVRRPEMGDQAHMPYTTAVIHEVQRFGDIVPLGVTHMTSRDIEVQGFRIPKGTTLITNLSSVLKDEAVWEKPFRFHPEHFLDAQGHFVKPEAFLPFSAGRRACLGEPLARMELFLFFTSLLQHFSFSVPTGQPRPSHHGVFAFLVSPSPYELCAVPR
Beta-lactamase (Pseudomonas aeruginosa, UniProt Q79MP6), sequence (Q79MP6 whole entry): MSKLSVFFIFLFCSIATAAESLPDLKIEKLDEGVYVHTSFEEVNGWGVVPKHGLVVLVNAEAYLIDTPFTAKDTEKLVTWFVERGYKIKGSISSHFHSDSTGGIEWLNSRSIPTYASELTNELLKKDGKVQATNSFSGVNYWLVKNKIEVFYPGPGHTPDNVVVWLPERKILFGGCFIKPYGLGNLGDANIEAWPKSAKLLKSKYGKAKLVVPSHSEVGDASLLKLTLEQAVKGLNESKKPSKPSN
Genome polyprotein, sequence (P29990 2492-3391 limits assumed): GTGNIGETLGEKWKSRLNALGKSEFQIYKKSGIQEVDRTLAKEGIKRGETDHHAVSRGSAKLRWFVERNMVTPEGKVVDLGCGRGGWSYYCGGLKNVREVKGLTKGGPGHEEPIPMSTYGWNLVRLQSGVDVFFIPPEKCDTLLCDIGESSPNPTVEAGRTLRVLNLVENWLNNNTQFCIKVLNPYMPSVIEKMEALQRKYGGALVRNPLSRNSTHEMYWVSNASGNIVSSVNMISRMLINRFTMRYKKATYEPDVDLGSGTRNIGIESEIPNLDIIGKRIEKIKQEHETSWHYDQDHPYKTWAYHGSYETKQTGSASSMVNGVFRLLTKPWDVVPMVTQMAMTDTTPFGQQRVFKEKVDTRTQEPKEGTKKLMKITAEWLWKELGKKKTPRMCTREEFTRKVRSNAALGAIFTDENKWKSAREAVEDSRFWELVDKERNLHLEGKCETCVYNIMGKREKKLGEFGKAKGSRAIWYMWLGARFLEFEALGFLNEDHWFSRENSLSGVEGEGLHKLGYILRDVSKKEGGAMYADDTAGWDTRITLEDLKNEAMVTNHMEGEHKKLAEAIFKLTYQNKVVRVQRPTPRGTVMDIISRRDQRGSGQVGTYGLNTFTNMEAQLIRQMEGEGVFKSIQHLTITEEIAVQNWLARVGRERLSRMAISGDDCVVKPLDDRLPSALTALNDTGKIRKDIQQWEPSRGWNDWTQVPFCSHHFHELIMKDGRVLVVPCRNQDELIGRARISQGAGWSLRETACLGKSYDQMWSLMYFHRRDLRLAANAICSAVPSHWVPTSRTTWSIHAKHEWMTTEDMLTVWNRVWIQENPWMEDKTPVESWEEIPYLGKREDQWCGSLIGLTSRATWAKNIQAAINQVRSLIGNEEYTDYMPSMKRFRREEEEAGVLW
Melanin-concentrating hormone receptor 1, sequence (Q99705 whole entry): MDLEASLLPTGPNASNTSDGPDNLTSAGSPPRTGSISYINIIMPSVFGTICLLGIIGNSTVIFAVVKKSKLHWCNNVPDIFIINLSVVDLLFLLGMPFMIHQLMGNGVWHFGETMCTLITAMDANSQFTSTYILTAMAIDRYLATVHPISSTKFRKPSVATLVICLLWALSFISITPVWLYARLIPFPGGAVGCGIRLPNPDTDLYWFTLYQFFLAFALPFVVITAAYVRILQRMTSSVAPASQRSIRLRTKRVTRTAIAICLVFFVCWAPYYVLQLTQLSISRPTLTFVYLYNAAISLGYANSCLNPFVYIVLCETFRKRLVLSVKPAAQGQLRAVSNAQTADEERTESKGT

In the case of CCCOc1ccc(-c2nc(OC)c3ccccc3n2)cc1, the EC50 [1] is reported as 17.9 µM (active), the EC50 [2] is reported as > 500 µM (not active) and the EC50 [3] is reported as 6.02 µM (active). The EC50 [4] was 3.83 µM (active), the EC50 [5] was > 500 µM (not active) and the EC50 [6] was > 150 µM (not active). For the same molecule, the EC50 [7] was 4.03 µM (active).

In the case of O=c1cc(C(F)(F)F)c2cc3c4c(c2o1)CCCN4CCC3, the IC50 [8] is reported as 1.37 µM (active), the IC50 [9] is reported as 78.2 µM (inactive) and the IC50 [10] is reported as 5.57 µM (active). For the same molecule, the AC50 [11] was 2.8 µM (active).

With Br.Brc1ccc(C2=Nn3c(nnc3-c3cccnc3)SC2)s1 the EC50 [12] was > 50 µM (not active), the AC50 [13] was “inconclusive” and the AC50 [14] was 4.47 µM (inconclusive). The AC50 [15] was 22.4 µM (inconclusive).

With COC(=O)c1ccc(-n2ncc(Cl)c(Oc3ccc(OC)cc3)c2=O)cc1 the IC50 [16] was > 20 µM (inactive) and the IC50 [17] was 4.1 µM (active).

For O=C1C=CC2=C3c4cc(O)c(O)cc4CC3(O)COC2=C1O (stereo not drawn), the IC50 [18] was > 80 µM (inactive), the AC50 [19] was 179 µM (active) and the AC50 [20] was 40.3 µM (active). For the same molecule, the IC50 [21] was 16.6 µM (inactive) and the IC50 [22] was 26.5 µM (active).

In the case of O=C(Nc1ccc(N2C(=O)[C@H]3CCCC[C@@H]3C2=O)c(Cl)c1)c1ccccn1, the EC50 [23] is reported as 0.65 µM (active).
